From paper PMC7759869 (Biomedicines, 2020)
pIC50: −log10 of the molar value.

Assays:
CYP3A4 + cyt b5 = target: T1, CYP3A4 + cyt b5 (Homo sapiens, UniProt P08684); assay: Cabozantinib oxidation by recombinant CYP3A4 in the presence of cyt b5 (Supersomes); format: in vitro ADME; conditions: Supersomes with cyt b5 vs without, 50 µM cabozantinib
T1 construct: purchased Corning (Corning, NY, USA); host or cells: insect cells (baculovirus)
Text: Cabozantinib was from MedChemExpress (Monmouth Junction, NJ, USA). Standard of cabozantinib N-oxide was purchased from Toronto Research Chemicals (Toronto, Canada). Ketoconazole, NADPH and other chemicals were all purchased from Merck (Darnstadt, Germany). The purity of all chemicals met the standards of American Chemical Society, unless otherwise noted. Male human hepatic microsomes (pooled sample) (sample LOT: 3043885) were from Gentest Corp. (Woburn, MA, USA). Microsomes from livers of twelve human donors were obtained from Gentest Corp. (Woburn, MA, USA) (Lot. no. HG43-1, HG103, HG74, HG93, HG24, HG27, HG23, HG32, HK31, HK34, HG03 and HG42). Each human microsomal sample was characterized for CYP, FMO, total protein contents and specific CYP activities by Gentest Corp. and reanalyzed by us by assays described in the protocols of Gentest Corp. Our data were similar to those reported by Gentest Corp. (Table 1). Human recombinant enzymes were used in the forms of Supersomes™ and obtained from Corning (Corning, NY, USA). In Supersomes™, microsomal fractions were isolated from insect cells that were transfected with baculovirus constructs containing cDNA of human CYP enzymes (CYP1A1/2, 1B1, 2A6, 2B6, 2C8/9/18/19/, 2D6, 2E1, 3A4). The Supersomes™ also express NADPH:CYP oxidoreductase (POR). However, because they are microsomes (particles of broken endoplasmic reticulum), other enzymes (proteins) of the endoplasmic reticulum membrane (like NADH:cytochrome b5 reductase and cytochrome b5) are also expressed at basal levels in these Supersomes™. We also utilized Supersomes™, which overexpressed cytochrome b5, in a molar ratio of CYP to cytochrome b5 of 1 to 5. In Supersomes™, where cytochrome b5 was not overexpressed (see above), pure cytochrome b5 was added to reach a molar ratio of CYP to cytochrome b5 of 1 to 5. Reconstitution of Supersomes™ with purified cytochrome b5 was performed as described previously. Human recombinant FMOs and AO were also used in the forms of Supersomes™ (Gentest Corp., Woburn, MA, USA). These microsomal fractions were isolated from insect cells that are transfected with baculovirus constructs containing cDNA of human FMO1, FMO3, FMO5 or AO enzymes.
The reaction was initiated by adding NADPH. In control incubations, either microsomes or CYP (FMO, AO) or NADPH were omitted. […] The reaction was stopped by extraction with ethyl acetate (2 × 1 mL). […] Cabozantinib metabolites separated by HPLC were characterized by mass spectroscopy (see further details below).

FMO1 = target: T2, FMO1 (Homo sapiens, UniProt Q01740); assay: Oxidation of cabozantinib by recombinant FMO1; format: in vitro ADME; conditions: human recombinant enzyme, data not shown
T2 construct: purchased Gentest Corp., Woburn, MA, USA; host or cells: insect cells (baculovirus)
T2 sequence (Q01740 1-532): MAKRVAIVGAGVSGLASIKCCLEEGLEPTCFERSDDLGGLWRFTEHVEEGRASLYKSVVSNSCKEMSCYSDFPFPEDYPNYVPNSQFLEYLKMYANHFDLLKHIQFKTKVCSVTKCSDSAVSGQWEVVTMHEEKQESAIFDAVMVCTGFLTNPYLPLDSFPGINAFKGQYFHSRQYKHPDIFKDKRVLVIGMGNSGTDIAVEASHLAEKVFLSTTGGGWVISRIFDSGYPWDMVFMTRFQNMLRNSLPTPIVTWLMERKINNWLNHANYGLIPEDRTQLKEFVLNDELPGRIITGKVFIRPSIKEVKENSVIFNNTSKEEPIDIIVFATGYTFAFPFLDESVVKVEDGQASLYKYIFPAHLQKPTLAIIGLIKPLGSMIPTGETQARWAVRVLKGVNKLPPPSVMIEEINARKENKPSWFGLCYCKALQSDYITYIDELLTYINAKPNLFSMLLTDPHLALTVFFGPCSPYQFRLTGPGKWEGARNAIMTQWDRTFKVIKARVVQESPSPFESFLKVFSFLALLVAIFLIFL
Text: The purity of all chemicals met the standards of American Chemical Society, unless otherwise noted. […] Microsomes from livers of twelve human donors were obtained from Gentest Corp. (Woburn, MA, USA) (Lot. no. HG43-1, HG103, HG74, HG93, HG24, HG27, HG23, HG32, HK31, HK34, HG03 and HG42). […] Human recombinant enzymes were used in the forms of Supersomes™ and obtained from Corning (Corning, NY, USA). In Supersomes™, microsomal fractions were isolated from insect cells that were transfected with baculovirus constructs containing cDNA of human CYP enzymes (CYP1A1/2, 1B1, 2A6, 2B6, 2C8/9/18/19/, 2D6, 2E1, 3A4). The Supersomes™ also express NADPH:CYP oxidoreductase (POR). However, because they are microsomes (particles of broken endoplasmic reticulum), other enzymes (proteins) of the endoplasmic reticulum membrane (like NADH:cytochrome b5 reductase and cytochrome b5) are also expressed at basal levels in these Supersomes™. We also utilized Supersomes™, which overexpressed cytochrome b5, in a molar ratio of CYP to cytochrome b5 of 1 to 5. In Supersomes™, where cytochrome b5 was not overexpressed (see above), pure cytochrome b5 was added to reach a molar ratio of CYP to cytochrome b5 of 1 to 5. Reconstitution of Supersomes™ with purified cytochrome b5 was performed as described previously. Human recombinant FMOs and AO were also used in the forms of Supersomes™ (Gentest Corp., Woburn, MA, USA).

FMO5 = target: T3, FMO5 (Homo sapiens, UniProt P49326); assay: Oxidation of cabozantinib by recombinant FMO5; format: in vitro ADME; conditions: human recombinant enzyme, data not shown
T3 construct: purchased Gentest Corp., Woburn, MA, USA; host or cells: insect cells (baculovirus)
T3 sequence (P49326 1-533): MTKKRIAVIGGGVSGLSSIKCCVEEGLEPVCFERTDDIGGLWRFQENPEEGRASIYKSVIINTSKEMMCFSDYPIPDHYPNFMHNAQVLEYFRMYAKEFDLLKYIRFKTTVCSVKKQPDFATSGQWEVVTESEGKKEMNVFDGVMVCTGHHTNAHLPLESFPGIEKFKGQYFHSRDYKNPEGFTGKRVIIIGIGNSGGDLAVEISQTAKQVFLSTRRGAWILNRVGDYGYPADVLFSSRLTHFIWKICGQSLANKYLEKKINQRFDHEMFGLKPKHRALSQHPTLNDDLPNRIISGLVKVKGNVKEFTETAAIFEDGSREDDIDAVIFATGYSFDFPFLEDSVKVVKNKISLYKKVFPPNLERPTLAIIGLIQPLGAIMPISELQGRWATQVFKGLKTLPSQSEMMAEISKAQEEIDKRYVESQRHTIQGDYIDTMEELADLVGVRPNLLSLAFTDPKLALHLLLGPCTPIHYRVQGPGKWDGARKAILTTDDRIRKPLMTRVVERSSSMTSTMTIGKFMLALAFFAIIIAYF

[1] = set-up: concentration or dose not given beside the values; conditions: metastatic renal cell carcinoma patients; cited from earlier work
MET = conditions: read-out: IC50 for MET; estimated; cited from earlier work

T1 sequence (P08684 whole entry): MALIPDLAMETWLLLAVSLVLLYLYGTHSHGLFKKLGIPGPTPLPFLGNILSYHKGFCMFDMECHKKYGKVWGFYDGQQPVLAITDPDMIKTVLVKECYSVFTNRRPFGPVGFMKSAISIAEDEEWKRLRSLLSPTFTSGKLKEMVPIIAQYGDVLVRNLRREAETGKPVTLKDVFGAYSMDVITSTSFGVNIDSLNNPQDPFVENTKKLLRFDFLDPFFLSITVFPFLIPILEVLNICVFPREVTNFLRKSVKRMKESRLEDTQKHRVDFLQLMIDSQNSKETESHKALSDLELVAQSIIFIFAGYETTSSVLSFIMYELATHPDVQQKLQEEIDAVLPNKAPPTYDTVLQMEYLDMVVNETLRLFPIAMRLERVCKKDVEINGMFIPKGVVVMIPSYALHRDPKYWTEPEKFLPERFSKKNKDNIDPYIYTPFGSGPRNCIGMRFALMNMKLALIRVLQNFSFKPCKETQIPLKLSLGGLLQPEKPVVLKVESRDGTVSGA

COc1cc2nccc(Oc3ccc(NC(=O)C4(C(=O)Nc5ccc(F)cc5)CC4)cc3)c2cc1OC [cabozantinib, N′1-{4-[(6,7-dimethoxyquinolin-4-yl)oxy]phenyl}-N1-(4-fluorophenyl)cyclopropane-1,1-dicarboxamide]
Increase of oxidation / metabolite formation by co-expression of cyt b5 with CYP3A4 (CYP3A4 + cyt b5): more than 2.9 fold | Oxidation of cabozantinib by FMO 1 (FMO1): ineffective | Oxidation of cabozantinib by FMO 5 (FMO5): ineffective | Plasma concentration, mean [1]: 973 ± 501 ng/mL | pIC50 (MET): 8.70
